Reference: publication PMC4823954, “From fighting depression to conquering tumors: a novel tricyclic thiazepine compound as a tubulin polymerization inhibitor” (Cell Death & Disease, 2016)

How the values were obtained:
Test in all cases: KINOMEscan
Type in all cases: binding
Conditions in all cases: read-out: % Ctrl
[1] = target: T1, AAK1 (Homo sapiens, UniProt Q2M2I8)
T1 construct: purchased DiscoveRx KINOMEscan
Procedure: (§1) The binding assay for 442 non-mutant kinases was performed using KINOMEscan (DiscoveRx Corporation, Fremont, CA, USA) as reported previously.[58], [59] TBPT was screened at concentrations of 5 and 10 μM to identify the affected kinases. KINOMEscan is based on a competition reaction that quantitatively measures the ability of a test compound to compete with an active site-directed ligand for binding to the kinase active site. […] After the assay plates were incubated with shaking for 1 h, the liganded beads were washed with washing buffer (1 × PBS and 0.05% Tween 20). Then, the beads were re-suspended in elution buffer (1 × PBS, 0.05% Tween 20, and 0.5 μM ligand) and incubated with shaking for 30 min. The kinase concentration in the eluates was measured via qPCR. The results are represented as ‘%Ctrl', which was calculated using the following formula: (test compound signal–positive control signal)/(DMSO signal–positive control signal) × 100%. A lower % Ctrl indicates stronger binding to the kinase active site.

[2] = target: T2, ABL1(F317L)-nonphosphorylated (Homo sapiens, UniProt P00519, F317L)
T2 construct: purchased DiscoveRx KINOMEscan
Procedure: as §1

[3] = target: T3, ABL1-nonphosphorylated (Homo sapiens, UniProt P00519)
T3 construct: purchased DiscoveRx KINOMEscan
Procedure: as §1

[4] = target: T4, CAMKK1 (Homo sapiens, UniProt Q8N5S9)
T4 construct: purchased DiscoveRx KINOMEscan
Procedure: as §1

[5] = target: T5, CASK (Homo sapiens, UniProt O14936)
T5 construct: purchased DiscoveRx KINOMEscan
Procedure: as §1

[6] = target: T6, CDC2L1 (Homo sapiens, UniProt P21127)
T6 construct: purchased DiscoveRx KINOMEscan
Procedure: as §1

[7] = target: T7, CDK11 (Homo sapiens, UniProt Q9BWU1)
T7 construct: purchased DiscoveRx KINOMEscan
Procedure: as §1

[8] = target: T8, CLK4 (Homo sapiens, UniProt Q9HAZ1)
T8 construct: purchased DiscoveRx KINOMEscan
Procedure: as §1

[9] = target: T9, CSNK1G1 (Homo sapiens, UniProt Q9HCP0)
T9 construct: purchased DiscoveRx KINOMEscan
Procedure: as §1

[10] = target: T10, DAPK1 (Homo sapiens, UniProt P53355)
T10 construct: purchased DiscoveRx KINOMEscan
Procedure: as §1

[11] = target: T11, DLK (Homo sapiens, UniProt Q12852)
T11 construct: purchased DiscoveRx KINOMEscan
Procedure: as §1

[12] = target: T12, EIF2AK1 (Homo sapiens, UniProt Q9BQI3)
T12 construct: purchased DiscoveRx KINOMEscan
Procedure: as §1

[13] = target: T13, FGFR2 (Homo sapiens, UniProt P21802)
T13 construct: purchased DiscoveRx KINOMEscan
Procedure: as §1

[14] = target: T14, GRK1 (Homo sapiens, UniProt Q15835)
T14 construct: purchased DiscoveRx KINOMEscan
Procedure: as §1

[15] = target: T15, IGF1R (Homo sapiens, UniProt P08069)
T15 construct: purchased DiscoveRx KINOMEscan
Procedure: as §1

[16] = target: T16, IKK-epsilon (Homo sapiens, UniProt Q14164)
T16 construct: purchased DiscoveRx KINOMEscan
Procedure: as §1

[17] = target: T17, LOK (Homo sapiens, UniProt O94804)
T17 construct: purchased DiscoveRx KINOMEscan
Procedure: as §1

[18] = target: T18, MAP3K4 (Homo sapiens, UniProt Q9Y6R4)
T18 construct: purchased DiscoveRx KINOMEscan
Procedure: as §1

[19] = target: T19, MAST1 (Homo sapiens, UniProt Q9Y2H9)
T19 construct: purchased DiscoveRx KINOMEscan
Procedure: as §1

[20] = target: T20, MLK1 (Homo sapiens, UniProt P80192)
T20 construct: purchased DiscoveRx KINOMEscan
Procedure: as §1

[21] = target: T21, MST1R (Homo sapiens, UniProt Q04912)
T21 construct: purchased DiscoveRx KINOMEscan
Procedure: as §1

[22] = target: T22, NEK5 (Homo sapiens, UniProt Q6P3R8)
T22 construct: purchased DiscoveRx KINOMEscan
Procedure: as §1

[23] = target: T23, PIK3CD (Homo sapiens, UniProt O00329)
T23 construct: purchased DiscoveRx KINOMEscan
Procedure: as §1

[24] = target: T24, PIP5K2C (Homo sapiens, UniProt Q8TBX8)
T24 construct: purchased DiscoveRx KINOMEscan
Procedure: as §1

[25] = target: T25, PKAC-beta (Homo sapiens, UniProt P22694)
T25 construct: purchased DiscoveRx KINOMEscan
Procedure: as §1

[26] = target: T26, RIOK1 (Homo sapiens, UniProt Q9BRS2)
T26 construct: purchased DiscoveRx KINOMEscan
Procedure: as §1

[27] = target: T27, RIPK2 (Homo sapiens, UniProt O43353)
T27 construct: purchased DiscoveRx KINOMEscan
Procedure: as §1

[28] = target: T28, SIK (Homo sapiens, UniProt P57059)
T28 construct: purchased DiscoveRx KINOMEscan
Procedure: as §1

[29] = target: T29, SRPK2 (Homo sapiens, UniProt P78362)
T29 construct: purchased DiscoveRx KINOMEscan
Procedure: as §1

[30] = target: T30, VEGFR2 (Homo sapiens, UniProt P35968)
T30 construct: purchased DiscoveRx KINOMEscan
Procedure: as §1

[31] = target: T31, WEE2 (Homo sapiens, UniProt P0C1S8)
T31 construct: purchased DiscoveRx KINOMEscan
Procedure: as §1

T30 sequence (P35968 20-1356): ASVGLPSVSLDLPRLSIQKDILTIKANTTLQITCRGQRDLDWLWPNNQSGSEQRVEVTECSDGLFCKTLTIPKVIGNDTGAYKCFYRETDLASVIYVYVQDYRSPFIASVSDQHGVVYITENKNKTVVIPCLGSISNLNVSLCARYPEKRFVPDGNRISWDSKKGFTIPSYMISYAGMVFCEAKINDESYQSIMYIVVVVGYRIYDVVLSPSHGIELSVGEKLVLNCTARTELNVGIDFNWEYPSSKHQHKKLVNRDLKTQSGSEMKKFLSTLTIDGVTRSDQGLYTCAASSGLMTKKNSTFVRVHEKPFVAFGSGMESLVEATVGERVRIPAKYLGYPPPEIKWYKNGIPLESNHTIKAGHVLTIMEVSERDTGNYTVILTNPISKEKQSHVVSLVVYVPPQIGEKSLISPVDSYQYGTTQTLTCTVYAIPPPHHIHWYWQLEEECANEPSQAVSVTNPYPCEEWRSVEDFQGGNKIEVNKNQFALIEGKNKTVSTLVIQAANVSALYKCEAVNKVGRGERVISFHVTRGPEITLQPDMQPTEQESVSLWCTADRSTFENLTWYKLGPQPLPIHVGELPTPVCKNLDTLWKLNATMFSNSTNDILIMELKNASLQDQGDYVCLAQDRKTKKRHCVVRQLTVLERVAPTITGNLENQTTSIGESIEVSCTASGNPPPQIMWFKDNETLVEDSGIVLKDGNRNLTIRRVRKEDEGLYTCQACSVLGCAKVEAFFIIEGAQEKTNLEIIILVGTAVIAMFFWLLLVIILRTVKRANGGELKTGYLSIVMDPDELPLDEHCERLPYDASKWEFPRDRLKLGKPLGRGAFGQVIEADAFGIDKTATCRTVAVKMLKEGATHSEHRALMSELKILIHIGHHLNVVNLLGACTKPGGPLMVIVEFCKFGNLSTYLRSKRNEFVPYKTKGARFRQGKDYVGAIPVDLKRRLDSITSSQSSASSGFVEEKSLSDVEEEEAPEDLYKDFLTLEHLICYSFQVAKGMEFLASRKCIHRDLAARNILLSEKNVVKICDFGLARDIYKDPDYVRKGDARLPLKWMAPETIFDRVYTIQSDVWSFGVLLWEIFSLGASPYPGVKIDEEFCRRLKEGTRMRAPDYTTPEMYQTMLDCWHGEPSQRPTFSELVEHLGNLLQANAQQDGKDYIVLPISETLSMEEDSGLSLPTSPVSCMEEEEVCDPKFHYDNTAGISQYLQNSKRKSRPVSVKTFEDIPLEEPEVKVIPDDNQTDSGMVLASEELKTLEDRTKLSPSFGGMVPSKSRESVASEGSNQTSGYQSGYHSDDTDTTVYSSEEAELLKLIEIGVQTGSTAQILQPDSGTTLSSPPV
T8 sequence (Q9HAZ1 whole entry): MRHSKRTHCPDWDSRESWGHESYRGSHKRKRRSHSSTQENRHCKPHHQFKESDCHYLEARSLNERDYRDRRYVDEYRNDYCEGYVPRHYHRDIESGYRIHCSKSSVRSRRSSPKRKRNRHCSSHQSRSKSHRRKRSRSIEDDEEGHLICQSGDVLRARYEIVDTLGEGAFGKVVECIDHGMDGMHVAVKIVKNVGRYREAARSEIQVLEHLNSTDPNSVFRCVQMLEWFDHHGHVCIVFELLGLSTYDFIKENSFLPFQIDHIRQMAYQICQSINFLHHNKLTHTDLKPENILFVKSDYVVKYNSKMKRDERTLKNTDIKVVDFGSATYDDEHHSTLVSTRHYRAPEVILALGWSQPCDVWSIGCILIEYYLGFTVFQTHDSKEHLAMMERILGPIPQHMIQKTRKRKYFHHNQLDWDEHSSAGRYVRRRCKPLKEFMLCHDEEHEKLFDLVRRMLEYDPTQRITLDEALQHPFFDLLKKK
T21 sequence (Q04912 25-1400): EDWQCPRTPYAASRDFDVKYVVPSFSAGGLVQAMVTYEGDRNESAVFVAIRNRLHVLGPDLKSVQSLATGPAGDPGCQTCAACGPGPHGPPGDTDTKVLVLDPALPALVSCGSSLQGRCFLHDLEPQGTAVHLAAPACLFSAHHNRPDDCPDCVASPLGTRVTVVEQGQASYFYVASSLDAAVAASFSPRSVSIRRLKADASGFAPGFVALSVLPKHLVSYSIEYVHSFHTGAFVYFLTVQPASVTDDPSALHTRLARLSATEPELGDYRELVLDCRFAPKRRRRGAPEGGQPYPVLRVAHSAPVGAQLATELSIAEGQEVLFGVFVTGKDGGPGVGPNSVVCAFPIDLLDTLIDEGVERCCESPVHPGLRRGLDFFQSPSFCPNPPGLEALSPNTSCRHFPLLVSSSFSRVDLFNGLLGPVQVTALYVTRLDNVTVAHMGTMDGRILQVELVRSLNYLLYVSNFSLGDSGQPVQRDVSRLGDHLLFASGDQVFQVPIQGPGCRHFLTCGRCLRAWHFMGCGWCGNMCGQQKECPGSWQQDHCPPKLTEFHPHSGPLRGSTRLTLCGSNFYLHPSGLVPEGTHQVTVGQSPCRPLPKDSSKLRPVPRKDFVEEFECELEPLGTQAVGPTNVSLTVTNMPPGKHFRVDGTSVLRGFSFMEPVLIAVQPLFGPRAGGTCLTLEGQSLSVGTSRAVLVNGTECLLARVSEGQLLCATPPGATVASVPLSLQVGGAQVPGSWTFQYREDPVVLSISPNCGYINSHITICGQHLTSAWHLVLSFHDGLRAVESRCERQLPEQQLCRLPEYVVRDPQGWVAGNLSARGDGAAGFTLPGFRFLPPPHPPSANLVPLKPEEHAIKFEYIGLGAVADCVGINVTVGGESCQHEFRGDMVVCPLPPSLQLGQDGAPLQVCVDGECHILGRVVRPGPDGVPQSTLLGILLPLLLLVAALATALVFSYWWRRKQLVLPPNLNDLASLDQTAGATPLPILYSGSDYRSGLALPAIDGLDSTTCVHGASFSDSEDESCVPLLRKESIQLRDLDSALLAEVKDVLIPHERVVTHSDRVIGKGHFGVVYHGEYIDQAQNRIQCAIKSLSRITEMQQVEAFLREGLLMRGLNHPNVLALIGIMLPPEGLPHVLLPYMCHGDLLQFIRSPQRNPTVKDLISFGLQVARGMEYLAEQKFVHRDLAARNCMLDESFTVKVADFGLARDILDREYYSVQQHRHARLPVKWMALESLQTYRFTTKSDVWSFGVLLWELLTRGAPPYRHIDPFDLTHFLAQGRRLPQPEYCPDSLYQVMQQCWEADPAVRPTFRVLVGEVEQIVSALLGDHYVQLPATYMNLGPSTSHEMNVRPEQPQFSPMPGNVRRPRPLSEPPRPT
T24 sequence (Q8TBX8 whole entry): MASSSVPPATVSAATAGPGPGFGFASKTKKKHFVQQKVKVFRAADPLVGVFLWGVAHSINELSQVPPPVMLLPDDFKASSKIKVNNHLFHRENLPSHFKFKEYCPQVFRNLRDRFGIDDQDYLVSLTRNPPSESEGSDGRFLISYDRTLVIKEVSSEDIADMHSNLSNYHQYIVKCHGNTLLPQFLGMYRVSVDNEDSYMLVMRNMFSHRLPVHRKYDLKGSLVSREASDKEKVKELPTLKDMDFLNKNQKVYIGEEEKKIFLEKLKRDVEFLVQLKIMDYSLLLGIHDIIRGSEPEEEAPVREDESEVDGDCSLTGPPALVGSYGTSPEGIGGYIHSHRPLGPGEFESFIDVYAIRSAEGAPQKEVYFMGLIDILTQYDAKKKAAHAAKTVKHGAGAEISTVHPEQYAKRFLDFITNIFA
T1 sequence (Q2M2I8 whole entry): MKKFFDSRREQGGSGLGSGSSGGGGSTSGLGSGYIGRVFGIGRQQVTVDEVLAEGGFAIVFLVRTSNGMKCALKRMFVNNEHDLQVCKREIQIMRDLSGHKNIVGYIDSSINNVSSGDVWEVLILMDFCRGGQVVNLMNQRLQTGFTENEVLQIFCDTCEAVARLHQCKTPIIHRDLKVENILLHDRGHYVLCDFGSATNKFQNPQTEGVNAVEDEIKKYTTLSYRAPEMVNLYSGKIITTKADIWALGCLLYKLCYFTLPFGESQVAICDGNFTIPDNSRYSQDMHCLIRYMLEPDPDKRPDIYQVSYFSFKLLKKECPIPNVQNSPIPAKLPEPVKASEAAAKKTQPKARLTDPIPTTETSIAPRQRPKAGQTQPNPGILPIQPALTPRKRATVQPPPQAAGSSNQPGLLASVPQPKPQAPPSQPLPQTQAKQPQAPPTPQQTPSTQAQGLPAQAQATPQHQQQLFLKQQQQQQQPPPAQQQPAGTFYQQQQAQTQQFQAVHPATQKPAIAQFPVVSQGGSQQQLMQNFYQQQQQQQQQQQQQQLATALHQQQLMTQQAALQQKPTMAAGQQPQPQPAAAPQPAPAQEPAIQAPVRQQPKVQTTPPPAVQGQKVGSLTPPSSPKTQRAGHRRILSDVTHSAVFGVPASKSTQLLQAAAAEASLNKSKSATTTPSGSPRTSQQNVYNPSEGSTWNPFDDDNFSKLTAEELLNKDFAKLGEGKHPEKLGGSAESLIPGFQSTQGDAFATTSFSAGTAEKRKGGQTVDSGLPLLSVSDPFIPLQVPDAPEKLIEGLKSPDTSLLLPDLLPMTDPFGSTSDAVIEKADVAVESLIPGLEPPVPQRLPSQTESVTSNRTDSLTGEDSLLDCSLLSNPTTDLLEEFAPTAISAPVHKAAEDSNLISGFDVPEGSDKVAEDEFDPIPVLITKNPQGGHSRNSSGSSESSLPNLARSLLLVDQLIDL
T4 sequence (Q8N5S9 whole entry): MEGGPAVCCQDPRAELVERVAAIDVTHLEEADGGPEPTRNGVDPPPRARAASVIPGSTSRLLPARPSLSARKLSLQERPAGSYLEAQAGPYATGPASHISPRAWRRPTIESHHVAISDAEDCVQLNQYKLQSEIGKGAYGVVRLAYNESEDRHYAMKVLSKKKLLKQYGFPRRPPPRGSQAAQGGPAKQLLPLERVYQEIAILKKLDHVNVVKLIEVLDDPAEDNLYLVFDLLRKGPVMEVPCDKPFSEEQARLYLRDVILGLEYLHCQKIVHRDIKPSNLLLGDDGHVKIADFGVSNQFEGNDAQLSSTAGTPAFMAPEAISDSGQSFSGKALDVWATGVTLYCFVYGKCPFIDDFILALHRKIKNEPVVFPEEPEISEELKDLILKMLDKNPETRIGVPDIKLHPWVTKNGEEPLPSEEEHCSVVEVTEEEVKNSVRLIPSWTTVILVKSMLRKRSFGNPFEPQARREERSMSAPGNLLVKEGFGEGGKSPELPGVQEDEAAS

Cc1ccc(C2=Nc3cccnc3S(=O)(=O)c3ccccc32)cc1 [TBPT, 6-(p-tolyl)benzo[f] pyrido[2,3-b][1,4] thiazepine 11,11-dioxide]
remaining binding at 5 µM ([1]; 5 μM): 100%
remaining binding at 10 µM ([1]; 10 μM): 89%
remaining binding at 5 µM ([2]; 5 μM): 80%
remaining binding at 10 µM ([2]; 10 μM): 100%
remaining binding at 5 µM ([3]; 5 μM): 89%
remaining binding at 10 µM ([3]; 10 μM): 100%
remaining binding at 5 µM ([4]; 5 μM): 100%
remaining binding at 10 µM ([4]; 10 μM): 92%
remaining binding at 5 µM ([5]; 5 μM): 100%
remaining binding at 10 µM ([5]; 10 μM): 100%
remaining binding at 5 µM ([6]; 5 μM): 99%
remaining binding at 10 µM ([6]; 10 μM): 100%
remaining binding at 5 µM ([7]; 5 μM): 100%
remaining binding at 10 µM ([7]; 10 μM): 100%
remaining binding at 5 µM ([8]; 5 μM): 93%
remaining binding at 10 µM ([8]; 10 μM): 96%
remaining binding at 5 µM ([9]; 5 μM): 100%
remaining binding at 10 µM ([9]; 10 μM): 89%
remaining binding at 5 µM ([10]; 5 μM): 83%
remaining binding at 10 µM ([10]; 10 μM): 100%
remaining binding at 5 µM ([11]; 5 μM): 88%
remaining binding at 10 µM ([11]; 10 μM): 81%
remaining binding at 5 µM ([12]; 5 μM): 100%
remaining binding at 10 µM ([12]; 10 μM): 100%
remaining binding at 5 µM ([13]; 5 μM): 93%
remaining binding at 10 µM ([13]; 10 μM): 100%
remaining binding at 5 µM ([14]; 5 μM): 100%
remaining binding at 10 µM ([14]; 10 μM): 100%
remaining binding at 5 µM ([15]; 5 μM): 100%
remaining binding at 10 µM ([15]; 10 μM): 79%
remaining binding at 5 µM ([16]; 5 μM): 80%
remaining binding at 10 µM ([16]; 10 μM): 100%
remaining binding at 5 µM ([17]; 5 μM): 100%
remaining binding at 10 µM ([17]; 10 μM): 92%
remaining binding at 5 µM ([18]; 5 μM): 99%
remaining binding at 10 µM ([18]; 10 μM): 96%
remaining binding at 5 µM ([19]; 5 μM): 45%
remaining binding at 10 µM ([19]; 10 μM): 87%
remaining binding at 5 µM ([20]; 5 μM): 100%
remaining binding at 10 µM ([20]; 10 μM): 100%
remaining binding at 5 µM ([21]; 5 μM): 80%
remaining binding at 10 µM ([21]; 10 μM): 100%
remaining binding at 5 µM ([22]; 5 μM): 100%
remaining binding at 10 µM ([22]; 10 μM): 100%
remaining binding at 5 µM ([23]; 5 μM): 94%
remaining binding at 10 µM ([23]; 10 μM): 100%
remaining binding at 5 µM ([24]; 5 μM): 100%
remaining binding at 10 µM ([24]; 10 μM): 100%
remaining binding at 5 µM ([25]; 5 μM): 96%
remaining binding at 10 µM ([25]; 10 μM): 100%
remaining binding at 5 µM ([26]; 5 μM): 83%
remaining binding at 10 µM ([26]; 10 μM): 76%
remaining binding at 5 µM ([27]; 5 μM): 92%
remaining binding at 10 µM ([27]; 10 μM): 97%
remaining binding at 5 µM ([28]; 5 μM): 92%
remaining binding at 10 µM ([28]; 10 μM): 92%
remaining binding at 5 µM ([29]; 5 μM): 96%
remaining binding at 10 µM ([29]; 10 μM): 78%
remaining binding at 5 µM ([30]; 5 μM): 95%
remaining binding at 10 µM ([30]; 10 μM): 84%
remaining binding at 5 µM ([31]; 5 μM): 100%
remaining binding at 10 µM ([31]; 10 μM): 100%
